Experimental data from patent publication US20090062294A1, “HETEROARYL-SUBSTITUTED UREA MODULATORS OF FATTY ACID AMIDE HYDROLASE” (priority 2007, published 2009).
pIC50: −log10 of the molar value. Where a name gives a salt, the structure may show the parent alone.

How the values were obtained:
rat FAAH = target: T1, rat FAAH (Rattus norvegicus, UniProt P97612); test: Assay Method 2: FAAH assay, 3H-anandamide hydrolysis in homogenate of SK-N-MC cells transfected with rat FAAH; assay type: biochemical; details: average of results, > = solubility limit or highest concentration tested
T1 sequence (P97612 1-579): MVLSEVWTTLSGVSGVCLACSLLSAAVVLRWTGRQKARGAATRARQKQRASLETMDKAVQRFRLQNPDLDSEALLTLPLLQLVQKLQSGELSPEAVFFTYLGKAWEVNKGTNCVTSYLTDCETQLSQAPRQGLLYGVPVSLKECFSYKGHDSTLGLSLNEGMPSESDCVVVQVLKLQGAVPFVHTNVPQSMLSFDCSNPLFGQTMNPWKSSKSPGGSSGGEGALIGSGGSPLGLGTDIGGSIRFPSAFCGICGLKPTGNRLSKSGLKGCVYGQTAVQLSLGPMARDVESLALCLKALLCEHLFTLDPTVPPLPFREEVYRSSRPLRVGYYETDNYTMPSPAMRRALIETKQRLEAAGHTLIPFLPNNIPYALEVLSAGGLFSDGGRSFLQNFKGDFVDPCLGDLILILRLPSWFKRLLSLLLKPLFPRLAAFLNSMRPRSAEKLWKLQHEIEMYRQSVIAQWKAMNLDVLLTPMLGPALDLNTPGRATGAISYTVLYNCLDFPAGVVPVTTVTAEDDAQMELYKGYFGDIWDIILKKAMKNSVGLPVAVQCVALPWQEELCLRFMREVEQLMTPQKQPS
In short: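 Homogenate of SK-N-MC cells stably transfected with rat FAAH cDNA (G418-selected clones) in pH 9 Tris/EDTA/glycerol/Triton buffer. Incubated with compound and 80 nM final [3H]-anandamide for 1 h at rt. Released [3H]-ethanolamine separated from substrate on activated charcoal filters and counted by scintillation.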

FAAH = target: T2, FAAH (Homo sapiens, UniProt O00519); test: Assay Method 1: FAAH assay, 3H-anandamide hydrolysis in homogenate of T84 cells or SK-N-MC cells transfected with human FAAH; assay type: biochemical; details: average of results, > = solubility limit or highest concentration tested
T2 sequence (O00519 1-579): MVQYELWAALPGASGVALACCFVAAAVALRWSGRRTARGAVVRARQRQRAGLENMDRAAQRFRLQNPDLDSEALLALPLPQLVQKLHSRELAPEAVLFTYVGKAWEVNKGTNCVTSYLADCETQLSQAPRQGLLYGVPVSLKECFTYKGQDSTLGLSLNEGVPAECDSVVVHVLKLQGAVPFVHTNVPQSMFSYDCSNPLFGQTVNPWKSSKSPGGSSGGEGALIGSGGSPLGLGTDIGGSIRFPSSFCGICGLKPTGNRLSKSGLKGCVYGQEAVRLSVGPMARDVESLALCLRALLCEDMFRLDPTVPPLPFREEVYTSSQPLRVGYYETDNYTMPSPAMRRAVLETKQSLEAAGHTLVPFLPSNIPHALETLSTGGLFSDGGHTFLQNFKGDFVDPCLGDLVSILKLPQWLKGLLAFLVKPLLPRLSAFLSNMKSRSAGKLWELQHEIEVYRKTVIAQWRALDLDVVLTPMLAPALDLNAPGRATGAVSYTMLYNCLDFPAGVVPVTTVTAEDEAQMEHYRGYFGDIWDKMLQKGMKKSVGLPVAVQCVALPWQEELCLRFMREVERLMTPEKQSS
In short: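 Homogenates of T84 cells or of SK-N-MC cells stably transfected with human FAAH (G418-selected) were prepared in pH 9 Tris/EDTA/glycerol/Triton buffer. They were incubated with compound and 80 nM final ^3H-anandamide for 1 h at rt. Released ^3H-ethanolamine was separated on activated charcoal and counted by scintillation.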

| pIC50 (rat FAAH) | pIC50 (FAAH) | Compound |
| --- | --- | --- |
| 7.34 | 7.47 | O=C(Nc1noc2ccccc12)N1CCN(Cc2cccc(Oc3ccc(F)c(Cl)c3)c2)CC1 [Example 207, 4-[3-(3-Chloro-4-fluoro-phenoxy)-benzyl]-piperazine-1-carboxylic acid benzo[d]isoxazol-3-ylamide] |
| 5.89 | 5.89 | O=C(Nc1ccc(Cl)nn1)N1CCC(Cc2cccc(C(F)(F)F)c2)CC1 [Example 25, 4-(3-Trifluoromethyl-benzyl)-piperidine-1-carboxylic acid (6-chloro-pyridazin-3-yl)-amide] |
| 7.52 | 7.00 | O=C(Nc1nnn[nH]1)N1CCN(Cc2cccc(Oc3ccc(Cl)c(Cl)c3)c2)CC1 [Example 174, 4-[3-(3,4-Dichlorophenoxy)benzyl]-N-1H-tetrazol-5-ylpiperazine-1-carboxamide] |
| 5.22 | 6.15 | O=C(Nc1ccon1)N1CCN(Cc2cccc(Oc3ccccc3Cl)c2)CC1 [Example 140, 4-[3-(2-Chlorophenoxy)benzyl]-N-isoxazol-3-ylpiperazine-1-carboxamide] |
| 6.57 | 7.40 | O=C(Nc1noc2ccccc12)N1CCN(Cc2ccc(OCc3ccccc3)cc2)CC1 [Example 112, N-1,2-Benzisoxazol-3-yl-4-[4-(benzyloxy)benzyl]piperazine-1-carboxamide] |
| 5.52 | 6.70 | N#Cc1ccc(Oc2cccc(CN3CCN(C(=O)Nc4cnccn4)CC3)c2)cc1 [Example 229, 4-[3-(4-Cyano-phenoxy)-benzyl]-piperazine-1-carboxylic acid pyrazin-2-ylamide] |
| < 5.00 | < 5.00 | O=C(Nc1nn[nH]n1)N1CCN(Cc2ccc3cc[nH]c3c2)CC1 [Example 178, 4-(1H-Indol-6-ylmethyl)-piperazine-1-carboxylic acid (2H-tetrazol-5-yl)-amide] |
| 5.10 | 6.34 | O=C(Nc1ccon1)N1CCN(Cc2cccc(Oc3ccc(F)c(F)c3)c2)CC1 [Example 153, 4-[3-(3,4-Difluorophenoxy)benzyl]-N-isoxazol-3-ylpiperazine-1-carboxamide] |
| 5.52 | 6.46 | O=C(Nc1ccon1)N1CCN(Cc2ccc3ccccc3c2)CC1 [Example 144, N-Isoxazol-3-yl-4-(naphthalen-2-ylmethyl)piperazine-1-carboxamide] |
| 5.96 | 6.70 | O=C(Nc1noc2ccccc12)N1CCN(Cc2cccc(Oc3ccccn3)c2)CC1 [Example 96, N-1,2-Benzisoxazol-3-yl-4-[3-(pyridin-2-yloxy)benzyl]piperazine-1-carboxamide] |
| 6.45 | 6.51 | O=C(Nc1ccc2nn[nH]c2c1)N1CCN(Cc2ccc3c(c2)OC(F)(F)O3)CC1 [Example 6, 4-(2,2-Difluoro-benzo[1,3]dioxol-5-ylmethyl)-piperazine-1-carboxylic acid (3H-benzotriazol-5-yl)-amide trifluoroacetic acid salt] |
| 7.70 | 7.70 | O=C(Nc1noc2ccccc12)N1CCN(Cc2cccc(Oc3ccc4ncccc4c3)c2)CC1 [Example 114, N-1,2-Benzisoxazol-3-yl-4-[3-(quinolin-6-yloxy)benzyl]piperazine-1-carboxamide] |
| 6.70 | 7.26 | O=C(Nc1noc2ccccc12)N1CCN(Cc2ccc3ccccc3n2)CC1 [Example 124, 4-Quinolin-2-ylmethyl-piperazine-1-carboxylic acid benzo[d]isoxazol-3-ylamide] |
| 6.70 | 7.22 | O=C(Nc1noc2ccccc12)N1CCN(Cc2cc3ccccc3o2)CC1 [Example 126, 4-Benzofuran-2-ylmethyl-piperazine-1-carboxylic acid benzo[d]isoxazol-3-ylamide] |
| 5.44 | 6.89 | O=C(Nc1cnccn1)N1CCN(Cc2cccc(Oc3ccc(F)c(F)c3)c2)CC1 [Example 231, 4-[3-(3,4-Difluorophenoxy)benzyl]-N-pyrazin-2-ylpiperazine-1-carboxamide] |
| 5.80 | 6.70 | O=C(Nc1cnccn1)N1CCN(Cc2cccc(Oc3ccccc3Cl)c2)CC1 [Example 238, 4-[3-(2-Chlorophenoxy)benzyl]-N-pyrazin-2-ylpiperazine-1-carboxamide] |
| 6.49 | 7.00 | O=C(Nc1cnccn1)N1CCN(Cc2ccc3ccccc3c2)CC1 [Example 213, 4-(Naphthalen-2-ylmethyl)-N-pyrazin-2-ylpiperazine-1-carboxamide] |
| 6.12 | 6.40 | O=C(Nc1noc2ccccc12)N1CCN(Cc2ccc3c(c2)OCO3)CC1 [Example 116, N-1,2-Benzisoxazol-3-yl-4-(1,3-benzodioxol-5-ylmethyl)piperazine-1-carboxamide] |
| 5.62 | 5.70 | O=C(Nc1cccs1)N1CCN(Cc2ccc3c(c2)OC(F)(F)O3)CC1 [Example 7, 4-(2,2-Difluoro-benzo[1,3]dioxol-5-ylmethyl)-piperazine-1-carboxylic acid thiophen-2-ylamide] |
| 6.60 | 6.82 | O=C(Nc1cnccn1)N1CCN(Cc2ccc(Br)c(Br)c2)CC1 [Example 217, 4-(3,4-Dibromobenzyl)-N-pyrazin-2-ylpiperazine-1-carboxamide] |
| 6.96 | 6.92 | O=C(Nc1noc2ccccc12)N1CCN(Cc2ccc(OC(F)(F)F)cc2)CC1 [Example 103, N-1,2-Benzisoxazol-3-yl-4-[4-(trifluoromethoxy)benzyl]piperazine-1-carboxamide] |
| 8.05 | 7.35 | O=C(Nc1noc2ccccc12)N1CCN(Cc2cccc(Oc3ccc4ccccc4c3)c2)CC1 [Example 119, N-1,2-Benzisoxazol-3-yl-4-[3-(naphthalen-2-yloxy)benzyl]piperazine-1-carboxamide] |
| 5.19 | 6.62 | O=C(Nc1ccon1)N1CCN(Cc2cccc(Oc3ccc4ncccc4c3)c2)CC1 [Example 162, N-Isoxazol-3-yl-4-[3-(quinolin-6-yloxy)benzyl]piperazine-1-carboxamide] |
| 6.12 | 5.11 | O=C(Nc1cc[nH]n1)N1CCN(Cc2cccc(Oc3cccc(C(F)(F)F)c3)c2)CC1 [Example 55, 4-[3-(3-Trifluoromethyl-phenoxy)-benzyl]-piperazine-1-carboxylic acid (1H-pyrazol-3-yl)-amide trifluoroacetic acid salt] |
| 7.66 | 6.57 | O=C(Nc1cnccn1)N1CCN(Cc2cccc(Oc3ccc(Cl)c(Cl)c3)c2)CC1 [Example 59, 4-[3-(3,4-Dichloro-phenoxy)-benzyl]-piperazine-1-carboxylic acid pyrazin-2-ylamide trifluoroacetic acid salt] |
| 8.40 | 8.52 | O=C(Nc1noc2ccccc12)N1CCN(Cc2cccc(Oc3ccc(Br)cc3)c2)CC1 [Example 32, 4-[3-(4-Bromo-phenoxy)-benzyl]-piperazine-1-carboxylic acid benzo[d]isoxazol-3-ylamide trifluoroacetic acid salt] |
| 5.15 | 5.85 | O=C(Nc1cc(-c2ccccc2)[nH]n1)N1CCN(Cc2cccc(Oc3ccc(Cl)cc3)c2)CC1 [Example 244, 4-[3-(4-Chlorophenoxy)benzyl]-N-(5-phenyl-1H-pyrazol-3-yl)piperazine-1-carboxamide trifluoroacetate salt] |
| 5.92 | 6.40 | O=C(Nc1ccon1)N1CCN(Cc2cccc(Oc3ccc4ccccc4c3)c2)CC1 [Example 150, 4-[3-(Naphthalen-2-yloxy)-benzyl]-piperazine-1-carboxylic acid isoxazol-3-ylamide] |
| 6.65 | 6.97 | O=C(Nc1noc2ccccc12)N1CCN(Cc2cccc(Oc3ccc(Cl)c(C(F)(F)F)c3)c2)CC1 [Example 205, 4-[3-(4-Chloro-3-trifluoromethyl-phenoxy)-benzyl]-piperazine-1-carboxylic acid benzo[d]isoxazol-3-ylamide trifluoroacetic acid salt] |
